Here are results for one compound from PMC8536575, “Acute effects of the imidacloprid metabolite desnitro-imidacloprid on human nACh receptors relevant for neuronal signaling” (Archives of Toxicology, 2021).

Where “and” joins values, the source holds several entries; their conditions need not be identical. Equal values may be shown once.

Assay [1] concerns the target T1, human α4β2 (LS) nAChR (Homo sapiens, UniProt P17787+P43681).
T1 construct: expressed in transfected cells; host or cells: Xenopus laevis oocytes, mRNA injection, 10 ng α4 and 1 ng β2
Nature of the assay: Two-electrode voltage-clamp recordings, Xenopus laevis oocytes expressing human α4β2 (LS) nAChR. It counts as cell-based. The source says:
The human α7 nAChR subunit was cloned in the pCDNA3.1 vector.
For the generation of the mRNA for injection, the plasmid DNAs of α3, α4, β2, and β4 were linearized with the NotI restriction endonuclease (New England Biolabs) and the plasmid DNA of α7 was linearized with the XbaI restriction endonuclease (New England Biolabs). The mRNAs of α3, α4, β2, and β4 were generated by in vitro transcription using the mMESSAGE mMACHINE SP6 Transcription Kit (Invitrogen). For the generation of α7 mRNA, the mMESSAGE mMACHINE T7 Transcription Kit (Invitrogen) was used. For the separation of the DNA and mRNA, a phenol–chloroform extraction (Chomczynski and Sacchi [2006]) was performed. The mRNA was then obtained by ethanol precipitation from the aqueous phase; for quantification, the BioPhotometer (Eppendorf) was used.
The recordings of human α7, α3β4, α4β2, and α4β4 nAChRs expressed in Xenopus laevis oocytes (EcoCyte Bioscience) were performed in two-electrode voltage-clamp mode using the Roboocyte2 system and the corresponding software (version 1.4.1; Multi Channel Systems MCS). Prior to the recordings, the oocytes were maintained at 19 °C in modified Barth’s solution containing [mM]: 88 NaCl, 1 KCl, 0.33 Ca(NO3)2, 0.82 MgSO4, 2.4 NaHCO3, 0.41 CaCl2, 5 Tris, 100 U/ml penicillin, 100 µg/ml streptomycin, pH 7.4.
To express human α7 nAChR, we injected 50 nl of mRNA solution (30 ng mRNA) per oocyte, using the Roboinject and the corresponding software (version 1.2.1; Multi Channel Systems MCS). […]
The baseline correction of voltage-clamp oocyte recordings was performed with the Roboocyte2 + software (version 1.4.3; Multi Channel Systems MCS, Germany). The maximal current influx and further analysis were executed in scripts written in R. In the antagonist experiments with oocytes, the maximal inward current was determined for the last response of each period (control, three antagonist concentrations, and washout).
For orientation: Two-electrode voltage clamp is typically applied to oocytes expressing channels or transporters.

The target in assay [2] is nAChRs on SH-SY5Y cells (Homo sapiens, UniProt P36544). Nature of the assay: [Ca2+]i measurements in SH-SY5Y cells (agonist effect). It counts as cell-based. The following applies: presence of PNU. On the procedure: SH-SY5Y cells were cultured as previously described (Attoff et al. [2016]). Briefly, they were cultured in MEM supplemented with 10% fetal bovine serum (Gibco, 31330095), 1% non-essential amino acid solution (Gibco, 11140035), 2 mM L-glutamine (Gibco, 25030024), 100 μg/ml streptomycin, and 100 U/ml penicillin (Gibco, 15140122). For maintenance culture, SH-SY5Y cells were seeded at 27,000 cells/cm^2 in 75 cm^2 cell culture flasks (Corning). The cells were passaged once a week using TrypLE Express Enzyme (Gibco). SH-SY5Y cells were differentiated into a neuronal-like phenotype by exchanging the maintenance medium with differentiation medium consisting of DMEM/F12 (Gibco, 31330095) supplemented with 1 mM L-glutamine (Gibco, 25030024), 100 μg streptomycin/mL, 100 U penicillin/mL, 1 × N2-supplement (Gibco, 17502048) and 1 µM all-trans retinoic acid (RA, Sigma, R2625) 24 h after seeding. The cells were incubated in 100% humidity at 37 °C in air with 5% CO2.
Sequence of nAChRs on SH-SY5Y cells (P36544 23-502): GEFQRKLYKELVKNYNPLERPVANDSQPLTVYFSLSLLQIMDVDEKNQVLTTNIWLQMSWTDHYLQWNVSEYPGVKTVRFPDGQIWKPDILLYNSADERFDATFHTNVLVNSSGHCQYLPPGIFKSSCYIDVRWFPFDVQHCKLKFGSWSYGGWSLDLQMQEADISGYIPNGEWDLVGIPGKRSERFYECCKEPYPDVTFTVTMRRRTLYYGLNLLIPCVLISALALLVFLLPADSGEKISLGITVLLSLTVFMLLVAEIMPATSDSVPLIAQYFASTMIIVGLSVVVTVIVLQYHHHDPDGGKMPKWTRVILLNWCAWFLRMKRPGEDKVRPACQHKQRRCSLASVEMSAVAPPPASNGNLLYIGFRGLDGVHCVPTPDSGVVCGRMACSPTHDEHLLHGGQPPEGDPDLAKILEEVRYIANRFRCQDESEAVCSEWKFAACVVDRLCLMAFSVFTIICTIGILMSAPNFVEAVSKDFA
To measure acute changes in the average [Ca^2+]i of a population, SH-SY5Y cells were examined in the 96-well plate fluorescence reader FlexStation II (Molecular Devices) using the fluorophore Fura-2AM. SH-SY5Y (35,000 cells/well; 109,375 cells/cm^2) were seeded in maintenance culture medium in black 96-well plates with clear bottom (Corning, #3603). 24 h after seeding, maintenance medium was replaced with differentiation medium. After 72 h of differentiation, Fura-2AM dissolved in DMSO and diluted in KRH buffer (125 mM NaCl, 5 mM KCl, 1.2 mM MgSO4, 1.2 mM KH2PO4, 2.0 mM CaCl2, 6.0 mM D-glucose, and 25 mM HEPES (free acid), pH adjusted to 7.4 by 1.0 M NaOH) were added to the medium to a final concentration of 4 µM (Gustafsson et al. [2010]). The plates were incubated for 30 min at 37 °C before cells were washed once with 200 µl KRH buffer. 90 µl of KRH buffer without or with 10 µM PNU-120596 (PNU) and/or 125 µM mecamylamine (Mec) and/or test chemicals in different concentrations for antagonist experiments were added to the Fura-2AM-loaded cells. The plate was again incubated for 20 min to allow full hydrolysis of the AM group before the experiment. The fluorescence was assessed at 37 °C in the fluorescence plate reader (FlexStation II; Molecular Devices) at two different excitation wavelengths, 340 nm for Ca^2+-bound Fura-2 and 380 nm for free Fura-2, and at 510 nm emission, every 3.1 s using bottom read settings. After 26–29 s of initial baseline recording of the fluorescence intensity, 10 µl of the compound dilution (10 times higher than the final concentration to the cells) was transferred automatically by the FlexStation II (“Flex mode”) to the cell plate wells (five wells per concentration) and the fluorescence intensity was monitored for another 150 s. The ratio of fluorescence intensity at 340/380 nm was determined and the mean values from the baseline recording before the addition of test compounds was set to zero. The acute change in the Ca^2+ influx after the addition of the compounds was quantified as the area under the curve (AUC) using the SoftMax Pro 4.8 software (Molecular Devices). All test compounds were dissolved in DMSO. Compounds were diluted in KRH buffer in 1:3 series, with 100 µM as the highest concentration. As a negative control, 0.1% DMSO in KRH buffer was used.

T1 sequence (P43681 27-627): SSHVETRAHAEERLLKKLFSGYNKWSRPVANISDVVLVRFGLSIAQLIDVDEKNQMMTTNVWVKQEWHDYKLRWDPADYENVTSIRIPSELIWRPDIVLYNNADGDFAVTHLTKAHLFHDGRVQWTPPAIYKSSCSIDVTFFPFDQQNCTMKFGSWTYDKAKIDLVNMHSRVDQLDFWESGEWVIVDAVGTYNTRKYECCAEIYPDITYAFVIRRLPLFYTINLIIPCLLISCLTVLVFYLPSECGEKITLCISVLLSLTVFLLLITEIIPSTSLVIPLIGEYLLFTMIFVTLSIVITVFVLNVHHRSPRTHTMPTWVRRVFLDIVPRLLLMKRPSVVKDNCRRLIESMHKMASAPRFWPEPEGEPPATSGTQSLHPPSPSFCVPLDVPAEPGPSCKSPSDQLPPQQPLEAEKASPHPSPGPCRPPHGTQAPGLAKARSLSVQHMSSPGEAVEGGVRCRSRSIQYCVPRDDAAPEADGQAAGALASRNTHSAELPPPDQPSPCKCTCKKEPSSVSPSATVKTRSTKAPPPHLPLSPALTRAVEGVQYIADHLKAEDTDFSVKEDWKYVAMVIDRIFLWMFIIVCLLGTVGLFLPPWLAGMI
T1 sequence (P17787 26-502): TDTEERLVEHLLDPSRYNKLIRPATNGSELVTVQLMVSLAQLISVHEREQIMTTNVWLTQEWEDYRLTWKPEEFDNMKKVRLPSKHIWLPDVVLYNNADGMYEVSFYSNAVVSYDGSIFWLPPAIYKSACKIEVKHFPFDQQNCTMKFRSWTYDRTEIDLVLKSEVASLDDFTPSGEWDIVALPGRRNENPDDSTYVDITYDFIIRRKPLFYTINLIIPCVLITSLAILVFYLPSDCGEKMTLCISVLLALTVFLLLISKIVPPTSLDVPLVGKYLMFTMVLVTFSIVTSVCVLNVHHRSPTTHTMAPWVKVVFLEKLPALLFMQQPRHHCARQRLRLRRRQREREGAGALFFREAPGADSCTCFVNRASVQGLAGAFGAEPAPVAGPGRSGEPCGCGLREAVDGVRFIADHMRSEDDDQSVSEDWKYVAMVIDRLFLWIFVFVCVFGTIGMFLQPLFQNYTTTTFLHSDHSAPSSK

Turning to `NC1=NCCN1Cc1ccc(Cl)nc1` [DN-IMI, desnitro-imidacloprid], in assay [1] (normalized to nicotine (100 µM)), the estimated maximum is reported as ~ 1.22. Further, the EC50 in assay [1] (read-out: relative pEC50 (inward current amplitude) (converted)) is 5010 nM; in assay [2] (read-out: half-maximal response concentration), 300 nM and ~300 nM. Further, the “relative pEC50 (AUC of fluorescence)” value in assay [2] (normalized to 10 µM nicotine, fit for < 10 µM) turned out to be 6.5 ± 0.07.
